Results taken from patent US20210238197A1, “NOVEL OXOQUINOLIZINE COMPOUNDS FOR THE TREATMENT AND PROPHYLAXIS OF BACTERIAL INFECTION” (Hoffmann-La Roche Inc., priority 2018, published 2021).
In brackets after ≈: the same amount, converted by molar mass. Like-named read-outs stand apart in the source and are kept apart here.

What was measured:
[1] = system: multiple species and strains; experiment: microbe, parasite or virus in culture; design: MIC S9 / MIC S7 / MIC S11 / MIC S8 / MIC S10: unit not given beside the values; conditions: for MIC S9: E. coli ATCC 35218
Protocol: The MIC of antibacterial compounds against multiple species and strains was determined using the broth microdilution method according to M07-A10 Clinical and Laboratory Standards Institute (CLSI) guidelines (CLSI (2015) Methods for dilution antimicrobial susceptibility tests for bacteria that grow aerobically; Approved Standard, Tenth Edition. CLSI Document M7-A10 (ISBN 1-56238-987-4). Wayne, Pa.: Clinical and Laboratory Standards Institute, 19087, USA.). In short, bacterial strain preparation was performed on D1 and D2. […] 5-10 well-isolated colonies of similar morphology were selected and re-streaked onto fresh agar plates using sterile loops and incubated for 20-24 hr at 35±2° C. Bacterial strains were subcultured two times to ensure fresh inoculums for MIC screening. […] Alternatively, 1-2 colonies were transferred into 500 μL of saline and OD600 was adjusted to ˜0.1 using an OD meter. Bacterial inoculum was diluted by 1:280 for Gram-positive strains and 1:400 for Gram-negative strains into corresponding medium broth (CAMHB, CAMHB+3% lysed horse blood, HTM) (e.g. 35.6 μL of inoculum into 10 mL of CAMHB or 25 μL of inoculum into 10 mL of CAMHB). For compound plate, the compound stock solutions were prepared in 100% DMSO on the day of MIC screening and used immediately. Compound stock concentration=[(highest testing concentration)×100 μL/2 μL] (e.g. if the required highest testing concentration is 64 μg/mL in assay plates, stock concentration=64 μg/mL×100 μL/2 μL=3.2 mg/mL). […] 1 μL of each well was transferred in a new MTP, which served as the test plate by subsequent inoculation. The bacterial suspension prepared above is dispensed at 98 μL/well within 15 minutes after preparation. Negative controls (lack of bacterial cells) and growth control wells (lack of compound) were included in all plates. MTPs were incubated for 18-24 hours at 35±2° C. in ambient air. The MIC was recorded and CFUs were calculated on Day 4. The assay plate was placed on the top of MIC reader, and the magnification mirror was adjusted to read each wells, recording growth status as raw data. Photo images of each assay plates were recorded using Q Count 530 (Spiral Biotech). The MIC value of each compound, expressed as μg/mL, was determined as the lowest concentration required for complete growth inhibition (no visible growth).

[2] = Cytotoxicity assay (HepG2, CellTiter-Blue); assay type: cell-based; conditions: human; HepG2 cells, 3 days treatment; >100 = detection limit
Protocol: The cytotoxicity of compounds of present invention was assessed by HepG2 assay. HepG2 cells (ATCC RB-8065™) were seeded into 96-well plates (1.2×10^4 cells per well) and treated with compounds for 3 days, cell viability was measured at day 3 post compound treatment using the CellTiter-Blue® Cell Viability Assay (Promega, Cat. No. G8082). […], of Cell titer blue buffer were added to each well of the cells, which were incubated for 3 hours at 37° C., and the fluorescence value was measured by a plate reader (Molecular Device SpectraMax M2). The CC50 value of each compound is plotted with GraphPad Prism using four parameter logistic equation.

A. baumannii (ATCC17978) = experiment: 50% growth inhibitory concentration (IC50) determination assay, A. baumannii; assay type: cell-based; conditions: Acinetobacter baumannii, ATCC17978; Iso-Sensitest broth, growth by OD 600 nm over 16 h; <0.098 = detection limit
Protocol: (§1) The in vitro antimicrobial activity of the compounds against S. aureus (ATCC29213), K. pneumoniae (ATCC10031), and A. baumannii (ATCC17978), was determined according to the following procedure: The assay used a 10-points Iso-Sensitest broth medium to measure quantitatively the in vitro activity of the compounds against S. aureus ATCC29213, K. pneumoniae ATCC 10031, and A. baumannii ATCC17978. Stock compounds in DMSO were serially two-fold diluted (range from 50 to 0.097 μM final concentration) in 384 wells microtiter plates and inoculated with 49 μL the bacterial suspension in Iso-Sensitest broth medium to have a final cell concentration of ˜5×10^5 CFU/mL in a final volume/well of 50 μL/well. Microtiter plates were incubated at 35±2° C. Bacterial cell growth was determined with the measurement of optical density at λ=600 nm each 20 minutes over a time course of 16 h.

S. aureus (ATCC29213) = experiment: 50% growth inhibitory concentration (IC50) determination assay, S. aureus; assay type: cell-based; conditions: Staphylococcus aureus, ATCC29213; Iso-Sensitest broth, growth by OD 600 nm over 16 h; <0.098 = detection limit
Protocol: as §1

[3] = system: K. pneumoniae (ATCC10031); experiment: 50% growth inhibitory concentration (IC50) determination assay, K. pneumoniae; assay type: cell-based; conditions: Klebsiella pneumoniae, ATCC10031; Iso-Sensitest broth, growth by OD 600 nm over 16 h; <0.098 = detection limit
Protocol: as §1

[4] = Acinetobacter baumannii, ATCC19606, read-out: MIC S1, A. baumannii ATCC 19606
[5] = Acinetobacter baumannii, ATCC51432, read-out: MIC S2, A. baumannii ATCC 51432
[6] = Acinetobacter baumannii, ATCCBAA747, read-out: MIC S3, A. baumannii ATCC BAA-747
[7] = Escherichia coli, ATCC25922, read-out: MIC S11, E. coli ATCC 25922
[8] = Escherichia coli, ATCCBAA2340, read-out: MIC S10, E. coli ATCC BAA-2340
[9] = Klebsiella pneumoniae, ATCC10031, read-out: MIC S4, K. pneumoniae ATCC 10031
[10] = Klebsiella pneumoniae, ATCC700603, read-out: MIC S5, K. pneumoniae ATCC 700603
[11] = Klebsiella pneumoniae, ATCCBAA2146, read-out: MIC S6, K. pneumoniae ATCC BAA-2146
[12] = Pseudomonas aeruginosa, ATCC27853, read-out: MIC S7, P. aeruginosa ATCC 27853
[13] = Pseudomonas aeruginosa, ATCCBAA2113, read-out: MIC S8, P. aeruginosa ATCC BAA-2113

SMILES: CNc1cc(F)c(Cl)c2c1[nH]c1ncc(-c3ccc4ccc(C(=O)O)c(=O)n4c3)c(N3CC[C@@]4(C[C@@H]4N)C3)c12 (single isomer, unassigned) [Example 5.01A]
- MIC [1, 4]: 1.03 µg/mL (≈ 1.88 µM)
- MIC [1, 5]: 1.03 µg/mL (≈ 1.88 µM)
- MIC [1, 6]: 1.03 µg/mL (≈ 1.88 µM)
- MIC S9 [1]: 0.516
- MIC [1, 7]: 0.194 µg/mL (≈ 0.355 µM)
- MIC [1, 8]: 0.516 µg/mL (≈ 0.943 µM)
- MIC [1, 9]: 0.032 µg/mL (≈ 0.0585 µM)
- MIC [1, 10]: 2.07 µg/mL (≈ 3.78 µM)
- MIC [1, 11]: 4.13 µg/mL (≈ 7.55 µM)
- MIC [1, 12]: 2.07 µg/mL (≈ 3.78 µM)
- MIC [1, 13]: 2.07 µg/mL (≈ 3.78 µM)
- CC50 at 3 days [2]: > 100000 nM

SMILES: CNc1cc(F)cc2c1[nH]c1ncc(-c3ccc4ccc(C(=O)O)c(=O)n4c3)c(N3CCOCC3)c12 [Example 1.02, 7-(6-fluoro-8-(methylamino)-4-morpholino-9H-pyrido[2,3-b]indol-3-yl)-4-oxo-4H-quinolizine-3-carboxylic acid]
- IC50 (A. baumannii (ATCC17978)): < 98 nM
- IC50 (S. aureus (ATCC29213)): 159 nM
- IC50 [3]: < 98 nM
- CC50 at 3 days [2]: 24100 nM

SMILES: CNc1cc(F)c(F)c2c1[nH]c1ncc(-c3ccc4ccc(C(=O)O)c(=O)n4c3)c(N3CC4[C@H](CC[C@H]4N(C)C)C3)c12 (stereo partly drawn) [Example 1.05, 7-[4-[cis-(4R)-4-(dimethylamino)-3,3a,4,5,6,6a-hexahydro-1H-cyclopenta[c]pyrrol-2-yl]-5,6-difluoro-8-(methylamino)-9H-pyrido[2,3-b]indol-3-yl]-4-oxo-quinolizine-3-carboxylic acid]
- CC50 at 3 days [2]: 15500 nM

SMILES: CNc1cc(F)c(Cl)c2c1[nH]c1ncc(-c3ccc4ccc(C(=O)O)c(=O)n4c3)c(N3C[C@H]4CC[C@@H](N(C)C)[C@H]4C3)c12 [Example 1.08, 7-[4-[cis-(4R)-4-(dimethylamino)-3,3a,4,5,6,6a-hexahydro-1H-cyclopenta[c]pyrrol-2-yl]-5-chloro-6-fluoro-8-(methylamino)-9H-pyrido[2,3-b]indol-3-yl]-4-oxo-quinolizine-3-carboxylic acid]
- MIC [1, 4]: 0.274 µg/mL (≈ 0.465 µM)
- MIC [1, 5]: 0.274 µg/mL (≈ 0.465 µM)
- MIC [1, 6]: 0.548 µg/mL (≈ 0.93 µM)
- MIC S9 [1]: 0.548
- MIC [1, 7]: 0.206 µg/mL (≈ 0.35 µM)
- MIC [1, 8]: 0.548 µg/mL (≈ 0.93 µM)
- MIC [1, 9]: 0.069 µg/mL (≈ 0.117 µM)
- MIC [1, 10]: 4.39 µg/mL (≈ 7.46 µM)
- MIC [1, 11]: 2.2 µg/mL (≈ 3.73 µM)
- MIC [1, 12]: 2.2 µg/mL (≈ 3.73 µM)
- MIC [1, 13]: 4.39 µg/mL (≈ 7.46 µM)
- IC50 (A. baumannii (ATCC17978)): < 98 nM
- IC50 (S. aureus (ATCC29213)): < 98 nM
- IC50 [3]: < 98 nM

SMILES: CNc1cc(F)c(C#N)c2c1[nH]c1ncc(-c3ccc4ccc(C(=O)O)c(=O)n4c3)c(N3CC4C(N(C)C)CO[C@@H]4C3)c12 (stereo partly drawn) [Example 1.15, 7-[5-cyano-4-[cis-3-(dimethylamino)-2,3,3a,4,6,6a-hexahydrofuro[2,3-c]pyrrol-5-yl]-6-fluoro-8-(methylamino)-9H-pyrido[2,3-b]indol-3-yl]-4-oxo-quinolizine-3-carboxylic acid]
- IC50 (A. baumannii (ATCC17978)): < 98 nM
- IC50 (S. aureus (ATCC29213)): 103 nM
- IC50 [3]: < 98 nM
- CC50 at 3 days [2]: 75400 nM

SMILES: CNc1cc(F)c(F)c2c1[nH]c1ncc(-c3ccc4ccc(C(=O)O)c(=O)n4c3)c(N3C[C@H]4CCN(C)[C@H]4C3)c12 [Example 3.03A, 7-[4-[(3aR,6aR)-1-methyl-2,3,3a,4,6,6a-hexahydropyrrolo[3,4-b]pyrrol-5-yl]-5,6-difluoro-8-(methylamino)-9H-pyrido[2,3-b]indol-3-yl]-4-oxo-quinolizine-3-carboxylic acid]
- MIC [1, 4]: 0.106 µg/mL (≈ 0.195 µM)
- MIC [1, 5]: 0.212 µg/mL (≈ 0.389 µM)
- MIC [1, 6]: 0.212 µg/mL (≈ 0.389 µM)
- MIC S9 [1]: 0.425
- MIC [1, 7]: 0.08 µg/mL (≈ 0.147 µM)
- MIC [1, 8]: 0.425 µg/mL (≈ 0.78 µM)
- MIC [1, 9]: 0.027 µg/mL (≈ 0.0496 µM)
- MIC [1, 10]: 3.4 µg/mL (≈ 6.25 µM)
- MIC [1, 11]: 1.7 µg/mL (≈ 3.13 µM)
- MIC [1, 12]: 0.85 µg/mL (≈ 1.56 µM)
- MIC [1, 13]: 3.4 µg/mL (≈ 6.25 µM)
- IC50 (A. baumannii (ATCC17978)): < 98 nM
- IC50 (S. aureus (ATCC29213)): < 98 nM
- IC50 [3]: < 98 nM

SMILES: CNc1cc(F)c(F)c2c1[nH]c1ncc(-c3ccc4ccc(C(=O)O)c(=O)n4c3)c(N3CC[C@H]4CCN(C)[C@H]4C3)c12 [Example 3.04A, 7-[4-[(3aR,7aR)-1-methyl-3,3a,4,5,7,7a-hexahydro-2H-pyrrolo[2,3-c]pyridin-6-yl]-5,6-difluoro-8-(methylamino)-9H-pyrido[2,3-b]indol-3-yl]-4-oxo-quinolizine-3-carboxylic acid]
- MIC [1, 4]: 0.218 µg/mL (≈ 0.39 µM)
- MIC [1, 5]: 0.218 µg/mL (≈ 0.39 µM)
- MIC [1, 6]: 0.218 µg/mL (≈ 0.39 µM)
- MIC S9 [1]: 0.218
- MIC [1, 7]: 0.082 µg/mL (≈ 0.147 µM)
- MIC [1, 8]: 0.218 µg/mL (≈ 0.39 µM)
- MIC [1, 9]: 0.027 µg/mL (≈ 0.0483 µM)
- MIC [1, 10]: 1.75 µg/mL (≈ 3.13 µM)
- MIC [1, 11]: 1.75 µg/mL (≈ 3.13 µM)
- MIC [1, 12]: 0.436 µg/mL (≈ 0.781 µM)
- MIC [1, 13]: 3.49 µg/mL (≈ 6.25 µM)
- IC50 (A. baumannii (ATCC17978)): < 98 nM
- IC50 (S. aureus (ATCC29213)): < 98 nM
- IC50 [3]: < 98 nM

SMILES: CNc1cc(F)c(Cl)c2c1[nH]c1ncc(-c3ccc4ccc(C(=O)O)c(=O)n4c3)c(N3CC[C@]4(C[C@H]4N)C3)c12 [Example 5.01B, 7-(4-((1R,3S)-1-amino-5-azaspiro[2.4]heptan-5-yl)-5-chloro-6-fluoro-8-(methylamino)-9H-pyrido[2,3-b]indol-3-yl)-4-oxo-4H-quinolizine-3-carboxylic acid]
- MIC [1, 4]: 0.516 µg/mL (≈ 0.943 µM)
- MIC [1, 5]: 1.03 µg/mL (≈ 1.88 µM)
- MIC [1, 6]: 1.03 µg/mL (≈ 1.88 µM)
- MIC S9 [1]: 0.516
- MIC [1, 7]: 0.097 µg/mL (≈ 0.177 µM)
- MIC [1, 8]: 0.516 µg/mL (≈ 0.943 µM)
- MIC [1, 9]: 0.032 µg/mL (≈ 0.0585 µM)
- MIC [1, 10]: 4.13 µg/mL (≈ 7.55 µM)
- MIC [1, 11]: 4.13 µg/mL (≈ 7.55 µM)
- MIC [1, 12]: 2.07 µg/mL (≈ 3.78 µM)
- MIC [1, 13]: 2.07 µg/mL (≈ 3.78 µM)
- CC50 at 3 days [2]: > 100000 nM
